The values below come from patent EP4714938A1, “HDAC1/2 SELECTIVE INHIBITOR AND USE THEREOF” (Wigen Biomedicine Technology (Shanghai) Co., Ltd., priority 2023, dated 2024).

pIC50: −log10 of the molar value. Like-named read-outs stand apart in the source and are kept apart here.

One data set addresses HDAC3 (Homo sapiens, UniProt O15379). The data set is described as follows: HDAC enzyme inhibitory activity, FRET method. Format: biochemical.
In the next data set the target is HDAC1 (Homo sapiens, UniProt Q13547). The data set is described as follows: HDAC enzyme inhibitory activity, FRET method. The data set is classed as biochemical.
The target of a further data set is HDAC2 (Homo sapiens, UniProt Q92769). Briefly: HDAC enzyme inhibitory activity, FRET method. The data set is classed as biochemical.
A short description of data set [1]: Stability in liver microsomes. The data set is classed as in vitro ADME. The conditions noted are these: for half-life at 1 µM / T1/2: 1 µM compound, 37 °C, NADPH regeneration system; for Clint: 1 µM. The method, then:
After the 1 µM compound was individually incubated at 37 °C for various durations with […] liver microsomes from humans, monkeys, beagles, rats, or mice in the presence of an NADPH regeneration system, LC-MS-MS was used to analyze the remaining amount of the compound, and T1/2 was calculated. Table 10. Evaluation results of stability of compounds of the present disclosure in human and mouse liver microsomes

In the next data set the test system is H3K 27 Acetyl lysine. Briefly: Intracellular H3K 27 acetyl lysine level by ELISA in HeLa cells. The data set is classed as cell-based. Particulars: 24 h of treatment. The method, then:
(§1) HeLa cells were seeded into a 96-well plate at 20000 cells/well. After overnight adherence culture, the serially diluted compound was added. After 24 h of treatment, intracellular levels of acetyl lysine and H3K 27 acetyl lysine were quantified by ELISA. Table 8. Effect of compound of the present disclosure on levels of acetyl lysine and H3K 27 acetyl lysine

The next data set relates to 293T cell. The data set is described as follows: Inhibition of cell proliferation (CTG, intracellular ATP). Format: cell-based. Particulars: Homo sapiens, HEK-293T, 72 h. The method, then: (§2) Jurkat or 293T cells were seeded into a 96-well plate at 3000 cells/well. After overnight adherence culture, the serially diluted compound in DMSO was added. After 72 h, the intracellular ATP level was determined by CTG. The IC50 for the inhibition of cell proliferation by the compounds was calculated compared to the DMSO group. Table 7. Inhibitory activity of compounds of the present disclosure against Jurkat/293T cell proliferation (IC50, µM)

A further data set concerns Jurkat cell. The data set is described as above. The data set is classed as cell-based. The conditions noted are these: 72 h. The method, then: as §2
A further data set relates to Acetyl lysine. The data set is described as follows: Intracellular acetyl lysine level by ELISA in HeLa cells. The data set is classed as cell-based. Particulars: 24 h of treatment. On the procedure: as §1
The target of another data set is T1, HDAC10 (Homo sapiens, UniProt Q969S8).
T1 sequence (Q969S8 1-669): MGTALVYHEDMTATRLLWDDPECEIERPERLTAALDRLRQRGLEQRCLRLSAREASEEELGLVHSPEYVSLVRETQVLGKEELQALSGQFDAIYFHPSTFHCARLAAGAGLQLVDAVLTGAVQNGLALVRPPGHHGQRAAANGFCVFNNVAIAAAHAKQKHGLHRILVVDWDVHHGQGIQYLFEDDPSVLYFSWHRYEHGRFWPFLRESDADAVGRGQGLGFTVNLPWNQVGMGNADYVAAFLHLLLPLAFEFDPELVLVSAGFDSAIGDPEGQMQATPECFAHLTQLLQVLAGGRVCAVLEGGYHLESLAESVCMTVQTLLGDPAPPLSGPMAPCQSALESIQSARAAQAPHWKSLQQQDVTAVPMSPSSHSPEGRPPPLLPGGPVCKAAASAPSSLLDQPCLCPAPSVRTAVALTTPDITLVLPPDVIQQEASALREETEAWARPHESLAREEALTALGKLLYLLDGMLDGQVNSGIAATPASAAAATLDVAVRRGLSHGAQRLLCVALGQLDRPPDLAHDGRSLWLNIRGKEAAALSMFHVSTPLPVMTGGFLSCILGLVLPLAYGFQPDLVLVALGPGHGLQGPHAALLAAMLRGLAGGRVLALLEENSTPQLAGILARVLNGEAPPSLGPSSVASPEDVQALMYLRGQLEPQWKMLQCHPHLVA
Particulars: read-out: IC50 HDAC subtype 10; Table 6.

In data set [2] the test system is Mouse colon cancer MC38 cells. The conditions noted are these: MC-38.
Description: Female C57BL6N mice (aged 6 weeks, 18-22 g) were provided by Vital River Laboratory Animal Technology Co., Ltd. (China) and used one week after quarantine and acclimation. All animals were kept in a room at 23±2 °C with a relative humidity of 50±5%, artificial lighting was provided from 08:00 to 20:00 every day, and the air was exchanged 13-18 times per hour.
Mouse colon cancer MC38 cells were cultured conventionally in 1640 medium containing 10% fetal bovine serum in an incubator at 37 °C with 5% CO2. After being subcultured, the cells were collected when they reached the desired amount. The C57BL6N mice were subcutaneously injected with 2 × 10^6 MC38 cells on the right side to form tumors. After the tumors grew to about 100 mm^3, the animals were randomly grouped for administration. Tumor volumes were measured with a caliper on day 3, day 7, day 10, day 14, day 17, and day 21 after the administration. The ability of the compounds to inhibit tumor growth was evaluated according to the tumor growth inhibition rate (TGI) = 1 - (tumor volume on day 28 in treatment group - tumor volume on day 1 in treatment group)/(tumor volume on day 28 in control group - tumor volume on day 1 in control group). The toxicity of the compounds was evaluated according to the body weight and state of the mice.
The groups were as follows: 1) solvent control group; 2) PD-1+Reg group; 3) Compound 1 group; 4) Reference Compound group; 5) compound 1 (10mg/kg) and PD-1+Reg Combination group; 6) compound 1 (30mg/kg) and PD-1+Reg Combination group; 7) compound 1 (90mg/kg) and PD-1+Reg Combination group; 8) Reference Compound (10mg/kg) and PD-1+Reg Combination group; 9) Reference Compound (30mg/kg) and PD-1+Reg Combination group; 10) Reference Compound (90mg/kg) and PD-1+Reg Combination group, with 6 mice per group.
Reg represents Regorafenib PD-1 represents an anti-PD-1 antibody; IV represents administration via intravenous injection; PO represents oral administration; QD represents once-daily administration; QW represents once-weekly administration; CR represents complete remission (complete disappearance of the tumor after the dosing cycle is completed); PR represents partial response (tumor volume reduction exceeding 30% relative to the initial volume upon completion of the administration cycle); SD represents stable disease (tumor volume reduction or growth not exceeding 30% relative to the initial volume upon completion of the administration cycle); Died represents mouse died before the dosing cycle is completed; Administration period* is once daily (QD) for 10 consecutive days, followed by a 16-day off-treatment period; the once-weekly (QW) regimen is administered only on Day 1 and Day 8.
Data set [3] deals with Mouse colon cancer CT-26 cells. Particulars: for Tumor response, number of mice (CR/PR/SD): 6 mice per group; for TGI(%): QD for 14 consecutive days, PO.
Description: Female BALB/c mice (aged 6 weeks, 18-22 g) were provided by Vital River Laboratory Animal Technology Co., Ltd. (China) and used one week after quarantine and acclimation. All animals were kept in a room at 23±2 °C with a relative humidity of 50±5%, artificial lighting was provided from 08:00 to 20:00 every day, and the air was exchanged 13-18 times per hour.
Mouse colon cancer CT-26 cells were cultured conventionally in 1640 medium containing 10% fetal bovine serum in an incubator at 37 °C with 5% CO2. After being subcultured, the cells were collected when they reached the desired amount. The BALB/c mice were subcutaneously injected with 2 × 10^5 CT-26 cells on the right side to form tumors. After the tumors grew to about 100 mm^3, the animals were randomly grouped for administration. Tumor volumes were measured with a caliper on day 3, day 7, day 10, day 14, day 17, and day 21 after the administration. The ability of the compounds to inhibit tumor growth was evaluated according to the tumor growth inhibition rate (TGI) = 1 - (tumor volume on day 28 in treatment group - tumor volume on day 1 in treatment group)/(tumor volume on day 28 in control group - tumor volume on day 1 in control group). The toxicity of the compounds was evaluated according to the body weight and state of the mice.

Chain of HDAC2 (Q92769 whole entry, species assumed): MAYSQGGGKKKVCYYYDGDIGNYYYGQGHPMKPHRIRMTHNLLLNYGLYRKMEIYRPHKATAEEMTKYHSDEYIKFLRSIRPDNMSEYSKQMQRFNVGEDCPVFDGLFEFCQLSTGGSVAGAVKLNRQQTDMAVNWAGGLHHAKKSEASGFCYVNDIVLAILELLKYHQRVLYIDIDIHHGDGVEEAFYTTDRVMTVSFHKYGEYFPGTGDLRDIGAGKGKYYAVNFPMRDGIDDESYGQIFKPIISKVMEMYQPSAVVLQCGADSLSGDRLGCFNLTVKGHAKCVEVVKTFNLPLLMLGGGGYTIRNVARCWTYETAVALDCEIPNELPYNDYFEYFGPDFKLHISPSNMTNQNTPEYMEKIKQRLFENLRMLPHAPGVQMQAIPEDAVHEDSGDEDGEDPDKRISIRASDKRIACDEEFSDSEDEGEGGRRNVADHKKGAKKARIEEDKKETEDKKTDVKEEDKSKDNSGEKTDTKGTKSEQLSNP
Chain of HDAC3 (O15379 whole entry, species assumed): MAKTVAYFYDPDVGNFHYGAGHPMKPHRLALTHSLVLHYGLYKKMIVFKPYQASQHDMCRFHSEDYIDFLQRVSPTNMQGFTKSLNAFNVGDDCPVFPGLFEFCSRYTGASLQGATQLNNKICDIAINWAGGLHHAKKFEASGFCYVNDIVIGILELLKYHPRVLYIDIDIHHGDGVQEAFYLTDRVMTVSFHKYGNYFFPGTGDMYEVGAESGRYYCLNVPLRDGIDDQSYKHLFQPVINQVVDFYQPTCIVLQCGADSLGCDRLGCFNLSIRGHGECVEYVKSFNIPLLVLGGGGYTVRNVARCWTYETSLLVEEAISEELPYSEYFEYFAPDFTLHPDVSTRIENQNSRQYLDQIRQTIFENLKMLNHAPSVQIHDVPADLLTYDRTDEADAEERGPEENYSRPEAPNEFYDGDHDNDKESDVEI
Chain of HDAC3 (Q9Y618 395-489 partner limits assumed, species assumed): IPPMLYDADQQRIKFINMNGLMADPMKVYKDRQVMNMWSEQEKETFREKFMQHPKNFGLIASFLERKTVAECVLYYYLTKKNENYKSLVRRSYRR
Chain of HDAC1 (Q13547 whole entry, species assumed): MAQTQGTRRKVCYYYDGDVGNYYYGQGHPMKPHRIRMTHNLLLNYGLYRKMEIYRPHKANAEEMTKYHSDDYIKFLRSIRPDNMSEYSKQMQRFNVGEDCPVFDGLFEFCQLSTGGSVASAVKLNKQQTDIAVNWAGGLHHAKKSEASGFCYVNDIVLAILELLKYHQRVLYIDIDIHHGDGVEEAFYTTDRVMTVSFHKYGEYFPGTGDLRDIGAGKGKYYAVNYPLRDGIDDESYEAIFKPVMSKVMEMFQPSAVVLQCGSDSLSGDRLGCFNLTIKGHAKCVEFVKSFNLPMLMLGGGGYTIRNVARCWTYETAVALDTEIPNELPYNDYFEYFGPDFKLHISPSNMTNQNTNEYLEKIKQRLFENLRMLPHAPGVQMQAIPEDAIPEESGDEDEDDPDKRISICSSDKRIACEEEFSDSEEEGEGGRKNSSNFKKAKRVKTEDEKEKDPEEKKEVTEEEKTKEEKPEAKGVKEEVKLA
Description for HDAC10: (§3) The compounds of the present disclosure were assayed for enzyme inhibitory activity against various subtypes of HDAC enzymes by the FRET method. The various subtypes of HDAC enzymes were obtained either through purification or direct purchase of assay kits.
(§4) The specific method was as follows: The enzyme was added to a 384-well plate, and a reaction buffer was added to the control well. Serially diluted DMSO sample solutions were added to the reaction wells, and the plate was incubated at room temperature for 15 min. Then a chromogenic agent was added to stop the reaction, and fluorescence was generated. The fluorescence intensity was measured using an EnVision multi-label microplate reader (excitation: 355 nm, emission: 460 nm). The endpoint value was read after the color development reached stability. The inhibition IC50 of the compounds was calculated using GraphPad Prism4 software relative to DMSO.
Description for HDAC2: as §3, §4
Description for HDAC3: as §3, §4

Take `CS(C)(=O)=Nc1ccc(C(=O)Nc2cc(-c3ccc(Cl)cc3)ccc2N)cc1` [Compound 3]: the negative-log IC50 (pIC50) was less than 5.30 at HDAC3 (Table 4, read-out: IC50 HDAC3); less than 5.52 on HDAC3 (Table 5, read-out: IC50 HDAC3); more than 6.30 on HDAC1 (Table 4, read-out: IC50 HDAC1); more than 7.52 on HDAC1 (Table 5, read-out: IC50 HDAC1); more than 6.30 on HDAC2 (Table 4, read-out: IC50 HDAC2); 6.52 to 7.52 on HDAC2 (Table 5, read-out: IC50 HDAC2). The intrinsic metabolic clearance (CLint scaled) at 1 µM in [1] (Human liver microsomes) amounted to 1.85 mL/min/kg; in [1] (Mouse liver microsomes), 17.8 mL/min/kg. Further, the Clliver in data set [1] (Human liver microsomes) is listed as 1.70 mL/min/kg; in [1] (Mouse liver microsomes), 14.87 mL/min/kg. Further, the half-life at 1 µM in data set [1] (Human liver microsomes) was determined as 939 min; in data set [1] (Mouse liver microsomes) it was 306 min.

As for `CS(C)(=O)=Nc1ccc(C(=O)Nc2cc(-c3ccc(F)s3)ccc2N)cc1` [Compound 33], the negative-log IC50 (pIC50) was less than 5.52 at HDAC3 (Table 5, read-out: IC50 HDAC3); more than 7.52 on HDAC1 (Table 5, read-out: IC50 HDAC1); 6.52 to 7.52 on HDAC2 (Table 5, read-out: IC50 HDAC2). Moreover, the intrinsic clearance (CLint scaled) at 1 µM in data set [1] (Human liver microsomes) was found to be 8.26 mL/min/kg; in [1] (Mouse liver microsomes) it was 0.45 mL/min/kg. Moreover, the Clliver in data set [1] (Human liver microsomes) came to 5.91 mL/min/kg; in data set [1] (Mouse liver microsomes) it was 0.45 mL/min/kg. The half-life at 1 µM in [1] (Human liver microsomes) came out at 210 min; in [1] (Mouse liver microsomes), 12000 min.

Turning to `Nc1ccc(-c2ccc(F)cc2)cc1NC(=O)c1ccc(N=S2(=O)CCCC2)cc1` [Compound 57], the pIC50 is less than 5.52 on HDAC3 (Table 5, read-out: IC50 HDAC3); more than 7.52 on HDAC1 (Table 5, read-out: IC50 HDAC1); 6.52 to 7.52 at HDAC2 (Table 5, read-out: IC50 HDAC2). The CLint scaled at 1 µM in [1] (Human liver microsomes) stood at 7.51 mL/min/kg; in data set [1] (Mouse liver microsomes), 33 mL/min/kg. In addition, the values for the Clliver in [1] (Human liver microsomes) and in [1] (Mouse liver microsomes) were 5.51 mL/min/kg and 24.16 mL/min/kg, respectively. Also, the half-life at 1 µM in data set [1] (Human liver microsomes) came out at 231 min; in data set [1] (Mouse liver microsomes), 165 min.

For `CN1CCS(=O)(=Nc2ccc(C(=O)Nc3cc(-c4ccc(F)cc4)ccc3N)cc2)CC1` [Compound 67], the negative-log IC50 (pIC50) at HDAC3 (Table 4, read-out: IC50 HDAC3) is less than 5.30; on HDAC3 (Table 5, read-out: IC50 HDAC3), less than 5.52; at HDAC1 (Table 4, read-out: IC50 HDAC1), more than 6.30; at HDAC1 (Table 5, read-out: IC50 HDAC1), more than 7.52; at HDAC2 (Table 4, read-out: IC50 HDAC2), more than 6.30; on HDAC2 (Table 5, read-out: IC50 HDAC2), 6.52 to 7.52. Moreover, the negative logarithm of the IC50 (pIC50) in the data set on 293T cell is less than 5.00; with Jurkat cell (Homo sapiens, Jurkat), 6.52. Also, the “H3K 27 Acetyl lysine Maximum (%)” value in the data set with H3K 27 Acetyl lysine is 300%. In addition, the “H3K 27 Acetyl lysine Minimum effective concentration” value in the data set on H3K 27 Acetyl lysine is 16 nM. In addition, the “Acetyl lysine Maximum (%)” value in the data set with Acetyl lysine came to 570%. Also, in the data set on Acetyl lysine, the “Acetyl lysine Minimum effective concentration” value stood at 16 nM.

On to `Nc1ccc(-c2ccc(F)s2)cc1NC(=O)c1ccc(N=S2(=O)CCC2)cc1` [Compound 92], for which the negative logarithm of the IC50 (pIC50) at HDAC3 (Table 4, read-out: IC50 HDAC3) was less than 5.30; on HDAC1 (Table 4, read-out: IC50 HDAC1) it was more than 6.30; on HDAC2 (Table 4, read-out: IC50 HDAC2) it was more than 6.30.

Consider `Nc1ccc(-c2ccc(F)s2)cc1NC(=O)c1ccc(N=S2(=O)CC3(CCC3)C2)cc1` [Compound 93], for which the pIC50 was less than 5.30 at HDAC3 (Table 4, read-out: IC50 HDAC3); more than 6.30 on HDAC1 (Table 4, read-out: IC50 HDAC1); more than 6.30 at HDAC2 (Table 4, read-out: IC50 HDAC2).

Turning to `Nc1ccc(-c2ccc(F)s2)cc1NC(=O)c1ccc(N=S2(=O)CC3(CNC3)C2)cc1` [Compound 94], the negative logarithm of the IC50 (pIC50) at HDAC3 (Table 4, read-out: IC50 HDAC3) is less than 5.30; at HDAC1 (Table 4, read-out: IC50 HDAC1), more than 6.30; at HDAC2 (Table 4, read-out: IC50 HDAC2), more than 6.30.

For `CN1CC2(C1)CS(=O)(=Nc1ccc(C(=O)Nc3cc(-c4ccc(F)s4)ccc3N)cc1)C2` [Compound 95], the negative-log IC50 (pIC50) at HDAC3 (Table 4, read-out: IC50 HDAC3) is less than 5.30; on HDAC1 (Table 4, read-out: IC50 HDAC1) it was more than 6.30; on HDAC2 (Table 4, read-out: IC50 HDAC2), more than 6.30.

For the compound `Nc1ccc(-c2ccc(F)s2)cc1NC(=O)c1ccc(N=S2(=O)CCCC2)cc1` [Compound 96], the pIC50 at HDAC3 (Table 4, read-out: IC50 HDAC3) was less than 5.30; on HDAC1 (Table 4, read-out: IC50 HDAC1), more than 6.30; at HDAC2 (Table 4, read-out: IC50 HDAC2), more than 6.30.

`CS(=O)(=O)Nc1ccc(C(=O)Nc2cc(-c3ccc(F)cc3)ccc2N)cc1` [Reference Compound, N-(4-amino-4'-fluoro-[1,1'-biphenyl]-3-yl)-4-(S-methylsulfonamido) benzamide, reference compound]: the pIC50 is less than 5.52 at HDAC3 (Table 5, read-out: IC50 HDAC3); 5.08 on HDAC3 (Table 6, read-out: IC50 HDAC subtype 3); 6.52 to 7.52 at HDAC1 (Table 5, read-out: IC50 HDAC1); 7.35 at HDAC1 (Table 6, read-out: IC50 HDAC subtype 1); 7.08 at HDAC10; 6.52 to 7.52 on HDAC2 (Table 5, read-out: IC50 HDAC2). The pIC50 is 6.75 on HDAC2 (Table 6, read-out: IC50 HDAC subtype 2) and 5.71 in the data set on Jurkat cell. Besides, in the data set on H3K 27 Acetyl lysine, the “H3K 27 Acetyl lysine Maximum (%)” value was determined as 190%. Also, the “H3K 27 Acetyl lysine Minimum effective concentration” value in the data set on H3K 27 Acetyl lysine is 80 nM. Moreover, the figures for the Clliver in data set [1] (Human liver microsomes) and in data set [1] (Mouse liver microsomes) were 11.68 mL/min/kg and 9.20 mL/min/kg, respectively. Besides, the T1/2 in data set [1] (Human liver microsomes) is recorded as 64.92 min; in [1] (Mouse liver microsomes), 532.44 min. Also, the Clint in data set [1] (Human liver microsomes) is given as 26.78 mL/min/kg; in [1] (Mouse liver microsomes), 10.25 mL/min/kg. Also, the “Change in body weight(%)” value in [2] (monotherapy 90 mg/kg QD PO) is 17.04 ± 1.54%; in data set [3] (monotherapy 30 mg/kg QD PO), 4.73±1.54%; in data set [3] (monotherapy 90 mg/kg QD PO) it was -3.53±2.89%. Moreover, the “Tumor response, number of mice (CR/PR/SD)” value in [2] (monotherapy 90 mg/kg QD PO, CR complete remission, PR partial response, SD stable disease, 6 mice per group) turned out to be 1PR; in [3] (monotherapy 30 mg/kg QD PO), 1PR; in [3] (monotherapy 90 mg/kg QD PO), 1PR+2SD. The “TGI(%)” value was found to be 73.90% in data set [2] (monotherapy 90 mg/kg, QD for 10 consecutive days, PO); 56.10% in [3] (monotherapy 30 mg/kg); 95.93% in data set [3] (monotherapy 90 mg/kg). In addition, the “Acetyl lysine Maximum (%)” value in the data set with Acetyl lysine was found to be 350%. Besides, the “Acetyl lysine Minimum effective concentration” value in the data set with Acetyl lysine was determined as 80 nM.
